The record followed here is patent US10288604B2, “Method for imaging cell using fluorescence-labeled sugar derivative having coumarin derivative bound thereto, and imaging agent” (HIROSAKI UNIVERSITY, priority 2012, dated 2019).

Assay type in all cases: cell-based
Experiment [1] concerns neurons acutely dissociated from mouse midbrain substantia nigra pars reticulata. As to the kind of experiment: Application of fluorescent sugar derivatives to acutely dissociated normal neurons (confocal imaging of uptake). To be noted: for increase in fluorescence intensity in the neuron before and after administration: 3 minutes, comparative compounds. As to the method:
This was conducted according to a method described in WO 2010/16587.
Living neurons were acutely dissociated from mouse midbrain substantia nigra pars reticulata, and to which a mixed solution containing 100 μM of 2-PBDG and 20 μM of 2-TRLG was administered at 37° C. for 5 minutes. FIGS. 1A to C represent confocal microscopic images taken immediately before this. A is a fluorescence image in blue wavelength region (Blue channel, wavelength range: 415-580 nm). The position of cells is recognized by autofluorescence. The fluorescence signal intensity is represented by pseudocolor. B is a fluorescence image in red wavelength region (Red channel, 580-740 nm). A and B were obtained both by simultaneous excitation using 405 nm Blue diode laser at an intensity of 60%, wherein photomultipliers (PMT) 1 and 2 were used respectively, and the detection sensitivity of PMT2 was raised higher than PMT1 so that the presence or absence of invasion of 2-TRLG can be detected in a sensitive manner. C is a view in which the bright field image is overlaid on the fluorescence images of A and B.
An experiment was conducted in the same manner as in Example 2.
FIGS. 2A to C represent confocal microscopic images immediately before administration of a mixed solution containing 100 μM of 2-PBLG and 20 μM of 2-TRLG at 37° C. to acutely dissociated neurons of mouse midbrain substantia nigra pars reticulata for 5 minutes.
FIG. 3 represents confocal microscopic images before and after administration of a mixed solution containing 100 μM of 2-HCDG and 20 μM of 2-TRLG at 37° C. for 3 minutes to neurons acutely dissociated from mouse midbrain substantia nigra pars reticulata. A and B are fluorescence images acquired before administration in Blue channel (415-580 nm) and Red channel (580-740 nm), respectively. The excitation wavelength is 405 nm. C is an image of differential interference (Differential Interference contrast, DIC). D is an overlay of the above-described images. E to H are the same as A to D, excepting that E to H are images acquired 4 minutes after initiation of washout of the fluorescence tracer solution after administration of the 2-HCDG+2-TRLG fluorescence tracer solution at 37° C. for 3 minutes. […] Since invasion of 2-TRLG into a cell is not observed, the plasma membrane of the neuron is thought to be maintained intactly.
Since the optimal excitation wavelength was as very low as 320 nm in this experiment, an image was acquired by Retiga-2000R CCD camera manufactured by Q-imaging via a custom-order filter constituted of an excitation filter (320 nm) (half width: 40 nm), a fluorescence filter (435 nm) (half width: 40 nm) and a dichroic mirror (409 nm), by a xenon lamp, using Nikon Ti-E real time deconvolution microscope.

For experiment [2], the system named is tumor cell cluster composed of mouse insulinoma cells (MIN6). As to the kind of experiment: Imaging of tumor cell cluster composed of MIN6 cells (real time laser scanning confocal microscope). The conditions noted are these: mixed solution 100 μM 2-PBLG, 100 μM 2-NBDLG, 20 μM 2-TRLG; MIN6 cluster day 13. As to the method:
A culture solution prepared by suspending MIN6 cells at a proportion of 10×10^4 cells/mL was dropped in an amount of 10 μL on a glass cover slip, then, allowed to adhere to the glass surface, and 3 mL of the culture solution was added and cultured. The half quantity of the culture solution was changed every three days.
Cryopreserved MIN6 cells (cells donated from Professor Miyazaki Junichi of Osaka University and cultured 5 to 8 passages) were subjected to culture according to an ordinary method, and cultured 7 to 9 passages which were used in experiments. The half amount of the culture solution was changed every two days.
NaCl 120.0 mM, KCl 4.75 mM, KH2 PO4 1.19 mM, MgSO4.7H2O 1.19 mM, CaCl2.2H2O 1 mM, NaHCO3 5.02 mM, D-Glucose 5.6 mM, HEPES 10 mM (adjusted to pH 7.35 with 1M NaOH). For inhibiting entrance and elimination of fluorescently labeled glucose via a gap junction/hemichannel, 0.1 mM Carbenoxolone (SIGMA #C4790) was added. The HEPES solution for image acquisition was used as a solution for preparing a 2-PBLG solution and as a solution for preparing a 2-PBLG/2-TRLG solution and 2-PBLG/2-NBDLG/2-TRLG solution.
A glass cover slip wherein MIN6 cells had been cultured was transferred into a HEPES solution for image acquisition in a perfusion chamber set on a universal stage (Leica 11600234) on a confocal laser scanning microscope (TCS SP5 available from Leica), and adhered gently and tightly to the glass surface at the bottom of the chamber. […] Further, there is an excellent effect that in the space sandwiched by the metal guides, the perfusion solution flows smoothly as a laminar flow and quick solution exchange is possible.
A perfusion solution feeding system is equipped with one 60 mL cylinder for a control solution and five 10 mL cylinders for agent feeding, which can be switched as needed by a magnetic valve to allow perfusion. In experiments according to the present invention, a 5.6 mM glucose-containing HEPES solution for image acquisition was administered using the 60 mL cylinder and a mixed solution of 2-PBLG/2-NBDLG/2-TRLG, a mixed solution of 2-PBDG/2-TRLG, or a mixed solution of 2-PBLG/2-TRLG was administered using one of the five 10 mL cylinders. As described below, to avoid generation of bubbles in the perfusion chamber, both the solutions were heated beforehand, combined in one tube before being introduced into the perfusion chamber, the flow rate thereof being controlled by a flow rate controller, then, heated again by an inline heater and fed to the perfusion chamber on the confocal microscope.
A laser scan confocal microscope (manufactured by Leica, TCS-SP5 system, microscope body is DMI6000 CS trino electromotive inverted microscope) was used in conventional mode. Regarding laser used, a 405 nm diode laser was used for excitation of 2-PBLG and 2-PBDG, excitation of a mixed solution of 2-PBLG (or 2-PBDG) and 2-TRLG with a single light source, or live staining of nucleus by DAPI. The irradiation intensity was appropriately adjusted in accordance with the fluorescent pigment used so as to obtain sufficient observation intensity by an acoustic optical polarization element (Acoustic Optical Tunable Filter, AOTF). 2-NBDLG and 2-TRLG were excited by 488 nm Argon laser. The scan speed was 200 Hz or 400 Hz.
In fluorescence detection, a photomultiplier detector (PMT) 1 was used for detection of blue fluorescence by 2-PBDG or 2-PBLG and images were acquired in a wavelength detection range set at 415-580 nm in the case of detection of bicolor of 2-PBLG/2-TRLG and in a wavelength detection range set at 415-500 nm in the case of detection of tricolor of 2-PBLG/2-NBDLG/2-TRLG. For detection of green fluorescence by 2-NBDLG, PMT2 (called green channel, the same shall apply hereinafter) was used in a wavelength detection range of 500-580 nm. For detection of red fluorescence by 2-TRLG, PMT3 (called red channel, the same shall apply hereinafter) was used in a wavelength detection range of 580-740 nm. […]

Experiment [3] relates to mouse insulinoma cells (MIN6). As to the kind of experiment: Uptake into MIN6 cells and influence of glucose transport inhibitors (fluorescent microplate reader). As to the method: Cryopreserved MIN6 cells (cells donated from Professor Miyazaki Junichi of Osaka University and cultured 5 to 8 passages) were subjected to culture according to an ordinary method, and cultures at 7 to 9 passages were used in experiments.
NaCl 129.0 mM, KCl 4.75 mM, KH2 PO4 1.19 mM, MgSO4.7H2O 1.19 mM, CaCl2.2H2O 1.0 mM, NaHCO3 5.02 mM, D-Glucose 5.6 mM, HEPES 10 mM (pH was adjusted to 7.35 with 1M NaOH). For inhibiting entrance and elimination of a fluorescently labeled glucose via gap junction/hemichannel, 0.1 mM Carbenoxolone (SIGMA #C4790) was added. This KRB solution was used as a solution for preparing a 2-PBLG solution.
2-PBDG and 2-PBLG were charged into wells at the third column and the fifth column, respectively, using a 8-channel pipette. Before administration, the autofluorescence of each well was measured beforehand by a fluorescent micro plate reader (Flex Station, manufactured by Molecular Device). The measurement conditions include Bottom Read, Ex 401 nm, Em 453 nm, Cut off 420 nm, Averaging 3, and high sensitivity of Photomultiplier. In the measurement method, Well Scan Mode was used. In Well Scan Mode, the inside of one well was divided into 9 regions of interest (diameter: 1.5 mm) and measurement was performed each independently.
Next, in wells (3C, 3E, 3G) for measuring the effect of a glucose transport inhibitor phloretin, phloretin (final 150 μM) was administered beforehand from 5 minutes prior to administration of 2-PBDG, while KRB was added to other wells (3B, 3D, 3F). Similar operation was also conducted on the fifth column where 2-PBLG was to be administered. 2-PBDG and 2-PBLG were administrated at 37° C. for 10 minutes.
After completion of administration, a diluting operation of the fluorescence solution in the well using 300 μL of a KRB solution was repeated set times each for 30 seconds. The repetition time was determined so that the fluorescence intensity detected by wells of A-th row and H-th row set as a control group was equivalent to the fluorescence intensity of a blank well containing no cell, and complete washout was confirmed in every experiment. In the case of 2-PBDG and 2-PBLG, this washout process needed 8 minutes, thus, measurement of fluorescence after administration was carried out 9 minutes after.
According to this method, even if cells having undergone a loss of the plasma membrane contacted 2-PBDG and 2-PBLG and once took up these compounds into themselves, it is judged that contribution of the increase in the fluorescence intensity to the whole observation area was ignorable level since these compounds had already been washed out of the cells when performing the measurement. This was supported by a pharmacological inhibition experiment separately in which the increase in the fluorescence intensity almost completely disappeared in the presence of an inhibitor. The above-described method was conducted in the same manner also when other inhibitor, for example, cytochalasin B (10 μM) was added.
The change of fluorescence intensity by administration of a D-glucose derivative (2-PBDG), an L-glucose derivative (2-PBLG) and PB—NH2 prepared by amidating Pacific Blue (PB) chromophore group to MIN6 cells on day of 10 of culture and the effect by a glucose transport inhibitor were confirmed in the same manner as in Example 4. PB—NH2 has the following structure (Ex max. 402 nm, Em max. 451 nm).
An experiment was conducted in the same manner as in Example 4.
The experiment was carried out 3 times independently, and the same results were obtained in all cases. In the experiment of administration of 2-PBDM, excitation occurred at a maximum excitation light wavelength of 404 nm and fluorescence was acquired at a maximum emission wavelength of 453 nm.

Where [4] appears, read: 100 μM with 20 μM 2-TRLG, 37° C.
[5] abbreviates: 100 μM derivative, phloretin 150 μM, MIN6 day 10.

For the molecule `O=C(NC1C(O)OC(CO)[C@@H](O)C1O)c1cc2ccc(O)cc2oc1=O` (stereo partly drawn) [2-HCDG, 2-Deoxy-2-((7-hydroxycoumarin-3-yl)carboxamido)-D-glucose], the “increase in fluorescence intensity in the neuron before and after administration” value in experiment [1] (setting [4]) was “no increase in the fluorescence intensity is detected”.

In the case of `COc1ccc2c(CC(=O)N[C@@H](C=O)[C@@H](O)[C@H](O)[C@H](O)CO)cc(=O)oc2c1` [2-MCDG, 2-Deoxy-2-(2-(7-methoxycoumarin-4-yl)acetamido)-D-glucose], the “increase in fluorescence intensity in the neuron before and after administration” value in experiment [1] (setting [4]) is “not recognized”.

Turning to `O=[N+]([O-])c1ccc(NC2C(O)OC(CO)[C@H](O)C2O)c2nonc12` (stereo partly drawn) [2-NBDLG, 2-[N-(7-nitrobenz-2-oxa-1,3-diazol-4-yl)amino]-2-deoxy-L-glucose, reference compound], the “fluorescence of cells in the cancer cell cluster 8 minutes after completion of administration” value in experiment [2] is “difficult to specify these cells only by the fluorescence imaging by 2-NBDLG”.

Turning to `O=C(NC1C(O)OC(CO)[C@@H](O)C1O)c1cc2cc(F)c(O)c(F)c2oc1=O` (stereo partly drawn) [2-PBDG, 2-Deoxy-2-((6,8-difluoro-7-hydroxycoumarin-3-yl)carboxamido)-D-glucose], in experiment [1] (100 μM with 20 μM 2-TRLG, 37° C., 5 minutes, image 4 minutes after initiation of washout), the “intracellular fluorescence intensity in Blue channel as compared with that before administration” value is “increased excepting nucleus”. The “persistence of intracellular blue fluorescence after washout” value in experiment [1] (images 8 and 20 minutes after initiation of washout) is reported as “not easily diminished”. In experiment [3] (100 μM derivative, 150 μM phloretin, MIN6 day 10, increase without phloretin as reference), the “decreased value of fluorescence intensity owing to phloretin (average)” value came to 22.4%. Moreover, the “effect of cytochalasin B on increase in fluorescence intensity” value in experiment [3] (100 μM derivative, cytochalasin B 10 μM, MIN6 day 10) is given as “did not show a significant inhibitory effect”. In addition, the “fluorescence intensity after administration as compared with that before administration” value in experiment [3] (100 μM, MIN6 on day 10 of culture, Ex 401 nm, Em 453 nm) is “increases significantly”.

In the case of `O=C(NC1C(O)OC(CO)[C@@H](O)C1O)c1cc2cc(F)c(O)c(F)c2oc1=O` (stereo partly drawn) [2-PBDM, 2-Deoxy-2-((6,8-difluoro-7-hydroxycoumarin-3-yl)carboxamido)-D-mannose], the “effect of phloretin on increase in fluorescence intensity (in words)” value in experiment [3] (setting [5]) is “slight but significant inhibitory effect”.

As for `NC(=O)c1cc2cc(F)c(O)c(F)c2oc1=O` [PB—NH2, reference compound], in experiment [3] (setting [5]), the “effect of phloretin on increase in fluorescence intensity (in words)” value is “remarkably promoted”. For the same molecule, in experiment [3] (100 μM, phloretin 150 μM, n=3 experiments), the “increase in the fluorescence with phloretin compared to when only PB—NH2 is administrated” value is listed as 384.1±24.2%. Moreover, the “increase in fluorescence intensity compared with that of 2-PBLG” value in experiment [3] (100 μM, same culture plate, MIN6 day 10) is listed as “significantly larger”.
